These results are taken from patent US11826344B2, “Composition, method of manufacture, and use of site-specific delivery of bruceolides for treatment of cancer and other diseases” (HOWARD UNIVERSITY, priority 2015, dated 2023).

As usually defined, the IC50 is the concentration that inhibits the measured activity by half.

Common to all, as to type: cell-based, human
Assay [1] has as its system Prostate cancer lines PC3 and LNCaP. Put plainly: Preliminary cytotoxicity study of brusatol solution on prostate cancer cell lines (FIG. 1). As to conditions: brusatol 1 nM to 10,000 nM, read from FIG. 1, read-out: IC50 (kills prostate cancer cells). How it is done:
(§1) The human prostate cancer cell lines, PC3 and LNCaP, were obtained from American Type Culture Collection (Manassas, VA). The PC3 and LNCaP cell lines were maintained in RPMI 1640 supplemented with 10% (v/v) FBS and 100 U/mL of penicillin G and 100 µg/mL of streptomycin sulfate. The cells were maintained as a monolayer in an incubator at 37° C. in a humid atmosphere with 5% CO2.

Another assay deals with PC3 cells. Put plainly: Cell Titer 96 Non-Radioactive Cell Proliferation Assay, PC3 cells, 120 h. The note with it: PC3, 10-500 nM. Here is the method:
as §1
(§2) PC3 (seeding density of 3,000 cells per well) and LNCaP (seeding density of 6,000 cells per well) were seeded in 96-well plates and allowed to attach for 24 h. […] Cell viability was assessed at 120 h after treatment. The Cell Titer 96® Non-Radioactive Cell Proliferation Assay manufactured by Promega Corporation was employed for this study. Results are presented as percent viability normalized to controls and represent the mean±SD of six replicates per concentration tested. Results were analyzed using One-way Analysis of Variance (ANOVA) and Student's t-test with the aid of SPSS® statistical software. Differences were considered significant at p<0.05.
(§3) The toxicity of the brusatol-loaded nanoparticles in prostate cancer cell lines was evaluated over 120 hours using the Cell Titer 96® Non-Radioactive Cell Proliferation Assay (Promega Corp.). LNCaP cells are androgen receptor dependent while PC-3 cells are androgen independent. […]

Assay [2] has as its system LNCaP cells. Put plainly: Cell Titer 96 Non-Radioactive Cell Proliferation Assay, LNCaP cells, 120 h. The note with it: 10-500 nM. How it is done:
as §1, §2, §3

Assay [3] deals with LNCaP cells. Put plainly: Cell cycle analysis by propidium iodide flow cytometry. As to conditions: 50 nM brusatol, 120 h (day 5). How it is done:
LNCaP cells (seeding density of 40,000 cells per well) were seeded in triplicates in a 24-well plate and incubated for 48 hours. […] The experiment was done in triplicate. At the 120 h time point, cells were harvested and washed twice with cold PBS, fixed in 70% ethanol for 1 h at 4° C. The cells were then washed twice with PBS, and treated with ribonuclease followed by staining with propidium iodide. The stained cells were subjected to cell cycle analysis using the BD Accuri™ C6 flow cytometer (BD Biosciences, Ann Arbor, MI, USA). For each replicate, 20,000 events were recorded.
(In general: A flow cytometer gives signals particle by particle.)

Turning to Brusatol, in assay [1], the IC50 fell in the range of 1 to 100 nM. Moreover, the “toxicity (in words)” value in the assay with PC3 cells and in the assay with LNCaP cells [2] was “dose-dependent toxicity” each time. For the same substance, the cell cycle effect entry in the assay with LNCaP cells [3] is listed as “induces a G1 arrest”; in the assay on LNCaP cells [3] (listed as brusatol solution), “G1 arrest”.
